According to patent US20220401514A1, “ANTIMICROBIAL, BACTERIOPHAGE-DERIVED POLYPEPTIDES AND THEIR USE AGAINST GRAM-NEGATIVE AND ACID-FAST BACTERIA” (CONTRAFECT CORPORATION, priority 2019, published 2022):
Like-named read-outs stand apart in the source and are kept apart here.

Columns and labels:
[1] = tested on: P. aeruginosa strain CFS-1292; assay: MIC in presence of mouse, rat, rabbit and human serum ([…] each); format: cell-based, Pseudomonas aeruginosa; settings: P. aeruginosa CFS-1292
Protocol: The activity of several Chp peptides against P. aeruginosa strain CFS-1292 in animal serum was evaluated. […] Rat, mouse, and rabbit serum were all obtained from pooled gender samples.

[2] = tested on: P. aeruginosa strain CFS-1292; assay: MIC at pH 6, pH 7 and pH 8; format: cell-based, Pseudomonas aeruginosa
Protocol: The Chp peptides were further evaluated at varying pH levels. The MIC values were determined at pH 6, pH 7, and pH 8 for 18 different Chp peptides against P. aeruginosa strain CFS-1292. […]

[3] = tested on: carbapenem-resistant bacterial strains; assay: organism not typed; format: cell-based
Text: (§1) Determination of Minimal Inhibitory Concentrations (MIC).

[4] = tested on: Mycobacterium tuberculosis strains
Protocol: MIC values for various Chp peptides were determined using the CLSI method for broth microdilution in 96-well microtiter format.
Next, MIC values for various Chp peptides were determined using the CLSI method above for broth microdilution in 96-well microtiter format for two different Mycobacterium tuberculosis strains. The MIC was determined as explained above for the NTM strains.

[5] = tested on: S. maltophilia; assay: MIC against S. maltophilia isolates; format: cell-based, Stenotrophomonas maltophilia; settings: S. maltophilia isolates (n per peptide in table)
Method in brief: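 Chp peptides were tested on a set of S. maltophilia isolates (n = isolates per species), with minimal inhibitory concentrations given in μg/mL.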

[6] = tested on: Pseudomonas aeruginosa, Escherichia coli, Enterobacter cloacae, Klebsiella pneumoniae, and Acinetobacter baumannii; assay: MIC against a range of Gram-negative organisms (statements covering several species); format: cell-based; settings: Tables 40-44 isolates
Protocol: as §1
(§2) Additional MIC testing was performed for several peptides against the ESKAPE pathogens Escherichia coli, Enterobacter cloacae, Klebsiella pneumoniae, and Acinetobacter baumannii, in CAA supplemented with human serum (Table D).

[7] = tested on: M. fortuitum; assay: 45 hr MIC against M. fortuitum (NTM); format: cell-based, Mycobacterium fortuitum; settings: M. fortuitum subsp. Fortuitum da Costa Cruz. ATCC 6841
[8] = tested on: M. kansasii Hauduroy ATCC 12478; assay: 45 hr MIC against M. kansasii (NTM), Mueller Hinton broth; format: cell-based, Mycobacterium kansasii
[9] = tested on: M. intracellulare; assay: 45 hr MIC against M. intracellulare (NTM); format: cell-based, Mycobacterium intracellulare; settings: M. intracellulare (Cuttino and McCabe) Runyon ATCC 13950
[10] = tested on: P. aeruginosa strain CFS-1292; assay: MIC in presence and absence of Survanta pulmonary surfactant; format: cell-based, Pseudomonas aeruginosa
[11] = tested on: Acinetobacter baumannii; assay: microbe, parasite or virus in culture; format: cell-based
[12] = tested on: carbapenem-resistant P. aeruginosa clinical isolate CFS-1292; assay: MIC by modified CLSI broth microdilution against P. aeruginosa CFS-1292 (CAA, CAA + human serum); format: cell-based, Pseudomonas aeruginosa
[13] = tested on: Klebsiella pneumoniae; format: cell-based
Protocol: as §1, §2

[14] = tested on: Enterobacter cloacae; assay: microbe, parasite or virus in culture; format: cell-based
Method in brief: (§3)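 Human serum was added to CAA broth for these MIC determinations with peptides.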

[15] = tested on: Escherichia coli; assay: microbe, parasite or virus in culture; format: cell-based
Method in brief: as §3

[16] = tested on: M. scrofulaceum; assay: 45 hr MIC against M. scrofulaceum (NTM); format: cell-based, Mycobacterium scrofulaceum; settings: M. scrofulaceum Prissick and Masson ATCC 19981
[17] = tested on: P. aeruginosa; assay: 24-hour time-kill assay at 0.2x, 1x, 5x MIC in CAA, P. aeruginosa; format: cell-based, Pseudomonas aeruginosa
Protocol: The time-kill assays were performed in CAA media at 37° C. with aeration. Quantitative plating was performed at time periods of 0 hours, 1 hour, 3 hours, and 24 hours. The following Chp peptides were evaluated: Chp2, Chp4, Chp2-M1, Chp4-M1, Chp6, Chp6-M1, Chp10, Chp10-M1, Ecp3, Ecp3-M1, Unp2, Unp2-M1, and Ecp1-M1.

[18] = tested on: M. smegmatis; assay: 45 hr MIC against M. smegmatis (NTM), Mueller Hinton broth; format: cell-based, Mycobacterium smegmatis
[19] = tested on: M. avium; assay: 45 hr MIC against M. avium (NTM); format: cell-based, Mycobacterium avium; settings: M. avium Chester ATCC 700898
[20] = tested on: Pseudomonas aeruginosa; assay: microbe, parasite or virus in culture; format: cell-based; settings: P. aeruginosa isolates (n per peptide in table)
[21] = tested on: P. aeruginosa strain CFS-1292; assay: MIC in presence and absence of NaCl (140 mM); format: cell-based, Pseudomonas aeruginosa
Protocol: Certain Chp peptides were evaluated over a range of physiological NaCl levels and pH values, and were further evaluated for activity in the presence of various divalent cations.

[22] = tested on: P. aeruginosa strain CFS-1292; assay: MIC in presence of divalent cations (calcium chloride, magnesium sulfate); format: cell-based, Pseudomonas aeruginosa
Protocol: Next, Chp peptides were evaluated in the presence of different divalent cations. […]; (2) in the presence of 2 mM calcium chloride alone; (3) in the presence of 1 mM magnesium sulfate alone; and (4) in the presence of both 2 mM calcium chloride and 1 mM magnesium sulfate. […]

[23] = Stability assessment in 100% CAA; format: in vitro ADME; set-up: unit not given beside the values
Protocol: Stability was assessed after incubation in 100% human serum at 37° C. after 10 minutes, 1 hour, and 2 hours.
Stability assessment was further conducted in 100% CAA and rabbit serum using the same methodology discussed above.

[24] = A. baumannii isolates (n per peptide in table)
[25] = K. pneumoniae isolates (n per peptide in table)
[26] = E. cloacae isolates (n per peptide in table)
[27] = E. coli isolates (n per peptide in table)

MKRRKLSKKKSRKIFTRGAVNVKKRNLRARPMRGGFRI [Chp10]
MIC BALB/C Mouse Serum ([1]; BALB/C mouse serum […]): 32 µg/mL | MIC CAA ([1]; CAA): 1 µg/mL | MIC New Zealand White Rabbit Serum ([1]; New Zealand White rabbit serum […]): 4 µg/mL | MIC Sprague Dawley Rat Serum ([1]; Sprague Dawley rat serum […]): 4 µg/mL | MIC Human Serum ([1]; human serum […]): 1 µg/mL | MIC ([2]; CAA media (pH 7)): 0.5 µg/mL | MIC ([2]; pH 6): 2 µg/mL | MIC ([2]; pH 7): 1 µg/mL | MIC ([2]; pH 8): 1 µg/mL | MIC ([3]; carbapenem-resistant isolate PA19): 0.5 µg/mL | MIC ([3]; carbapenem-resistant isolate PA20): 8 µg/mL | MIC ([3]; carbapenem-resistant isolate PA21): 8 µg/mL | MIC ([3]; carbapenem-resistant isolate PA22): 8 µg/mL | MIC ([3]; carbapenem-resistant isolate PA23): 4 µg/mL | MIC ([3]; carbapenem-resistant isolate PA24): 4 µg/mL | MIC ([3]; carbapenem-resistant isolate WLC-452): 1 µg/mL | MIC ([4]; Mycobacterium tuberculosis (Zopf) Lehmann and Neumann ATCC 25177): 32 µg/mL | MIC ([4]; Mycobacterium tuberculosis (Zopf) Lehmann and Neumann ATCC 35817): 8 µg/mL | MIC50 [5]: 8 µg/mL | MIC100 [5]: >8 µg/mL | activity (good = MIC100 of ≤4) against all of P. aeruginosa, K. pneumoniae, A. baumannii, E. cloacae, and E. coli [6]: good activity | 45 hr MIC [7]: 1 µg/mL | 45 hr MIC [8]: 4 µg/mL | 45 hr MIC [9]: 0.5 µg/mL | MIC ([10]; CAA media + 0.19 mg/mL Survanta): 0.5 µg/mL | MIC ([10]; CAA media + […] Survanta): 0.5 µg/mL | MIC ([10]; CAA media alone): 0.5 µg/mL | MIC50 [11, 24]: 0.5 µg/mL | MIC100 [11, 24]: 0.5 µg/mL | MIC Range [11, 24]: 0.25 to 0.5 µg/mL | MIC ([11]; Acinetobacter baumannii ATCC BAA 747, CAA supplemented with human serum): 2 µg/mL | MIC (μg/mL) against CFS-1292 in 100% CAA (1st run/2nd run) ([12]; 100% CAA, 1st run or single value): 0.5 µg/mL | MIC (μg/mL) against CFS-1292 in CAA + […] human serum ([12]; CAA + […] human serum): 0.5 µg/mL | MIC50 [13, 25]: 0.25 µg/mL | MIC100 [13, 25]: 0.5 µg/mL | MIC Range [13, 25]: 0.125 to 0.5 µg/mL | MIC ([13]; Klebsiella pneumoniae HM-44, CAA supplemented with human serum): 0.5 µg/mL | MIC50 [14, 26]: 0.25 µg/mL | MIC100 [14, 26]: 1 µg/mL | MIC Range [14, 26]: 0.125 to 2 µg/mL | MIC ([14]; Enterobacter cloacae ATCC 13047, CAA supplemented with human serum): 1 µg/mL | MIC50 [15, 27]: 0.5 µg/mL | MIC100 [15, 27]: 1 µg/mL | MIC Range [15, 27]: 0.03 to 0.2 µg/mL | MIC ([15]; Escherichia coli ATCC 25922, CAA supplemented with human serum): 0.5 µg/mL | 45 hr MIC [16]: 0.5 µg/mL | Log10 CFU/mL compared to untreated control buffer (24-hour time-kill) [17]: all but Chp10 maintaining strong efficacy up to 24 hours | 45 hr MIC ([18]; M. smegmatis MC^2 155, Run #1): 2 µg/mL | 45 hr MIC ([18]; M. smegmatis MC^2 155, Run #2): 1 µg/mL | 45 hr MIC [19]: 0.5 µg/mL | MIC50 [20]: 4 µg/mL | MIC100 [20]: 8 µg/mL | MIC Range [20]: 0.5 to 8 µg/mL | Fold change in MIC ([21]; CAA + 140 mM NaCl versus CAA without added NaCl): 4 | MIC, CAA + 140 mM NaCl ([21]; CAA + 140 mM NaCl, P. aeruginosa CFS-1292): 2 µg/mL | MIC, CAA (no added NaCl) ([21]; CAA, no added NaCl, P. aeruginosa CFS-1292): 0.5 µg/mL | MIC ([22]; CAA media + 1 mM MgSO4): 1 µg/mL | MIC ([22]; CAA media + 2 mM CaCl2): 1 µg/mL | MIC ([22]; CAA media + + 1 mM MgSO4): 2 µg/mL | MIC ([22]; CAA media alone): 0.5 µg/mL | MIC (100% CAA) [23]: 0.5
